The data set in a line: HILIC, Waters Atlantis Premier BEH Z-HILIC, 100 × 2.1 mm, 1.7 µm, 40 °C, 0.15 mL/min, estimated dead time 1.5 min; A: water + 20 mM ammonium carbonate + 5 µM medronic acid; B: 10% water + 90% acetonitrile + 2 mM ammonium carbonate + 0.5 µM medronic acid; gradient (min/%B) 0/100 18/55 18.1/20 21.5/20 22/100 23.5/100 25.5/100. Conditions: stereoisomer not certain.

For the compound `O=C(O)CCC(=O)C(=O)O` [2-Oxoglutaric acid], the LC retention time is 8.62 min.
To `O=C(O)CCC(O)C(=O)O` (stereo not given) [2-hydroxy glutaric acid] belongs 9.58 min; to `Nc1ncnc2c1ncn2C1OC(COP(=O)(O)OP(=O)(O)O)C(O)C1O` (stereo not given) [ADP], 11.9 min.
With `Nc1ncnc2c1ncn2C1OC(COP(=O)(O)O)C(O)C1O` (stereo not given) [AMP] the figure was 8.82 min; with `Nc1ncnc2c1ncn2C1OC(COP(=O)(O)OP(=O)(O)OP(=O)(O)O)C(O)C1O` (stereo not given) [ATP], 14.3 min.
To `CC(=O)SCCNC(=O)CCNC(=O)C(O)C(C)(C)COP(=O)(O)OP(=O)(O)OCC1OC(n2cnc3c(N)ncnc32)C(O)C1OP(=O)(O)O` (stereo not given) [Acetyl-CoA] belongs 9.49 min; to `Nc1ncnc2c1ncn2C1OC(CO)C(O)C1O` (stereo not given) [Adenosine], 3.65 min.
Regarding `O=C(O)CCCCC1SCC2NC(=O)NC21` (stereo not given) [Biotin], the LC retention time was 4.6 min.
Turning to `C[N+](C)(C)CC(O)CC(=O)[O-]` (stereo not given) [Carnitine], the LC retention time is 9.95 min.
With `O=C(O)CC(O)(CC(=O)O)C(=O)O` [Citric acid] the figure was 14.7 min; with `CC(C)(COP(=O)(O)OP(=O)(O)OCC1OC(n2cnc3c(N)ncnc32)C(O)C1OP(=O)(O)O)C(O)C(=O)NCCC(=O)NCCS` (stereo not given) [CoenzymeA], 11.9 min.
For the compound `Cc1cc2nc3c(=O)[nH]c(=O)nc-3n(CC(O)C(O)C(O)COP(=O)(O)OP(=O)(O)OCC3OC(n4cnc5c(N)ncnc54)C(O)C3O)c2cc1C` (stereo not given) [FAD], the LC retention time was 7.27 min.
To `O=C(CO)C(O)C(O)C(O)COP(=O)(O)O` (stereo not given) [Fructose 6-phosphate] belongs 12 min; to `O=P(O)(O)OCC1OC(O)(COP(=O)(O)O)C(O)C1O` (stereo not given) [Fructose-1,6-bisphosphate], 16.6 min.
As to `Nc1nc2c(ncn2C2OC(COP(=O)(O)OP(=O)(O)OP(=O)(O)O)C(O)C2O)c(=O)[nH]1` (stereo not given) [GTP], the LC retention time is 17.1 min.
In the case of `O=P(O)(O)OCC1OC(O)C(O)C(O)C1O` (stereo not given) [Glucose-6-phosphate], the LC retention time was 12.6 min.
To `NC(CCC(=O)O)C(=O)O` (stereo not given) [Glutamic acid] belongs 9.29 min; to `NC(=O)CCC(N)C(=O)O` (stereo not given) [Glutamine], 10.4 min.
Regarding `O=P(O)(O)OCC(O)CO` (stereo not given) [Glycerol-3-phosphate], the LC retention time was 9.84 min.
As for `OCC1OC(O)C(O)C(O)C1O` (stereo not given) [Hexose], the LC retention time is 6.94 min.
With `O=C(O)CC(C(=O)O)C(O)C(=O)O` (stereo not given) [Isocitric acid] the figure was 14.5 min; with `CCC(C)C(N)C(=O)O` (stereo not given) [Isoleucine], 6.3 min.
To `CC(O)C(=O)O` (stereo not given) [Lactic Acid] belongs 3.36 min; to `CC(C)CC(N)C(=O)O` (stereo not given) [Leucine], 6.08 min; to `NC(=O)C1=CN(C2OC(COP(=O)(O)OP(=O)(O)OCC3OC(n4cnc5c(N)ncnc54)C(O)C3O)C(O)C2O)C=CC1` (stereo not given) [NADH], 7.99 min.
Regarding `NC(=O)C1=CN(C2OC(COP(=O)(O)OP(=O)(O)OCC3OC(n4cnc5c(N)ncnc54)C(OP(=O)(O)O)C3O)C(O)C2O)C=CC1` (stereo not given) [NADPH], the LC retention time was 14.7 min.
`NC(=O)c1ccc[n+](C2OC(COP(=O)(O)OP(=O)(O)OCC3OC(n4cnc5c(N)ncnc54)C(OP(=O)(O)O)C3O)C(O)C2O)c1` (stereo not given) [NADP]: the LC retention time was 13.8 min.
With `NC(=O)c1ccc[n+](C2OC(COP(=O)(O)OP(=O)(O)OCC3OC(n4cnc5c(N)ncnc54)C(O)C3O)C(O)C2O)c1` (stereo not given) [NAD] the figure was 10.5 min; with `C=C(OP(=O)(O)O)C(=O)O` [PEP], 14.4 min; with `O=C(O)C(CO)OP(=O)(O)O` (stereo not given) [Phosphoglyceric acid A], 13.3 min.
With `O=C(O)CCC(=O)O` [Succinic Acid] the figure was 9.39 min; with `O=C(CO)COP(=O)(O)O` [Triose phosphate], 9.84 min.
To `CC(=O)NC1C(OP(=O)(O)OP(=O)(O)OCC2OC(n3ccc(=O)[nH]c3=O)C(O)C2O)OC(CO)C(O)C1O` (stereo not given) [UDP-GlcNAc] belongs 9.63 min; to `CCC(=O)OC(CC(=O)[O-])C[N+](C)(C)C` (stereo not given) [carnitine-C3], 6.33 min; to `O=C1CC(C(=O)O)NC(=O)N1` (stereo not given) [dihydroorotic acid], 4.02 min.

The record behind these values is the RepoRT retention time repository.
